Counter-ions that a name gives are not always drawn.
Assay: In-vitro permeation testing with a Franz Cell Diffusion System
Description: In-vitro Permeation testing was performed for the dosage forms in Table 8 with a Franz Cell Diffusion System. The receiving chamber was filled in water solution and stirred with magnetic bar. Fix the PermeaPad® Barrier membrane at the surface. The PermeaPad® Barrier consists of two cellulose membranes and in between there is a Lipid layer Lecithine (S-100). Place the donating chamber onto the receiving chamber and effectively sandwich the membrane. Add 5 mg of the film prepared in Table 8 into the donating chamber and introduce 1 ml of water to dissolve the film. Start the timer for the experiment.
Permeability (P, cm/h), in general within first 8 hours, is defined as the rate of flow of liquid through the membrane.
The similar procedure was performed for the other APIs with a molecule weight ranging from 100 to 6000 g/mol.

| Molecule | Pemeability (cm/h) via PermeaPad Biomimetic Membrane in vitro (HLB9.0) | Pemeability (cm/h) via PermeaPad Biomimetic Membrane in vitro (HLB15) | Pemeability (cm/h) via PermeaPad Biomimetic Membrane in vitro (no enhancers) | Pemeability (cm/h) via PermeaPad Biomimetic Membrane in vitro (HLB4.3) | Pemeability (cm/h) via PermeaPad Biomimetic Membrane in vitro (HLB9.4) | Pemeability (cm/h) via PermeaPad Biomimetic Membrane in vitro (enhancer condition not stated) |
| --- | --- | --- | --- | --- | --- | --- |
| CN1CCc2cccc3c2[C@H]1Cc1ccc(O)c(O)c1-3 [Apomorphine HCL] | (HLB15), 2.73 (HLB9.0) cm/h | 1.87 cm/h | 0.413 cm/h |  |  |  |
| NC(=O)c1ccc[n+]([C@@H]2O[C@H](COP(=O)([O-])O)[C@@H](O)[C@H]2O)c1 [Beta-nicotinamide mononucleotide, NMN, Beta-nicotinamide mononucleotide] |  |  | 0.23 (No enhancers), cm/h | 0.23 (HLB4.3), cm/h | 0.38 (HLB9.4) cm/h |  |
| CC[C@H](C)[C@H](NC(=O)[C@H](CCC(=O)O)NC(=O)[C@H](CCC(=O)O)NC(=O)[C@H](Cc1ccccc1)NC(=O)[C@H](CC(=O)O)NC(=O)CNC(=O)[C@H](CC(N)=O)NC(=O)CNC(=O)CNC(=O)CNC(=O)CNC(=O)[C@@H]1CCCN1C(=O)[C@H](CCCNC(=N)N)NC(=O)[C@@H]1CCCN1C(=O)[C@H](N)Cc1ccccc1)C(=O)N1CCC[C@H]1C(=O)N[C@@H](CCC(=O)O)C(=O)N[C@@H](CCC(=O)O)C(=O)N[C@@H](Cc1ccc(O)cc1)C(=O)N[C@@H](CC(C)C)C(=O)O [Bivalirudin Peptide, Bivalirudin] |  |  |  |  |  | Un-detectable |
| Cn1c(=O)c2c(ncn2C)n(C)c1=O [Caffeine] |  | 5.01 cm/h | 0.277 cm/h |  | (HLB15), 7.76 (HLB9.4) cm/h |  |
| Insulin |  |  |  |  |  | Un-detectable |
